Test results from US20130209543A1, “ENHANCED TREATMENT REGIMENS USING MTOR INHIBITORS” (Intellikine LLC, priority 2011, published 2013).
Read-outs that look alike come from different tables or passages of the source.

Columns and labels:
PI3K γ = PI3K γ (Homo sapiens, UniProt P48736); assay: PI3K γ kinase assay; assay type: biochemical
PI3K α = PI3K α (Homo sapiens, UniProt P42336); assay: PI3K α kinase assay; assay type: biochemical
PI3K δ = PI3K δ (Homo sapiens, UniProt O00329); assay: PI3K δ kinase assay; assay type: biochemical
PI3K δ, sequence (O00329 whole entry, species assumed): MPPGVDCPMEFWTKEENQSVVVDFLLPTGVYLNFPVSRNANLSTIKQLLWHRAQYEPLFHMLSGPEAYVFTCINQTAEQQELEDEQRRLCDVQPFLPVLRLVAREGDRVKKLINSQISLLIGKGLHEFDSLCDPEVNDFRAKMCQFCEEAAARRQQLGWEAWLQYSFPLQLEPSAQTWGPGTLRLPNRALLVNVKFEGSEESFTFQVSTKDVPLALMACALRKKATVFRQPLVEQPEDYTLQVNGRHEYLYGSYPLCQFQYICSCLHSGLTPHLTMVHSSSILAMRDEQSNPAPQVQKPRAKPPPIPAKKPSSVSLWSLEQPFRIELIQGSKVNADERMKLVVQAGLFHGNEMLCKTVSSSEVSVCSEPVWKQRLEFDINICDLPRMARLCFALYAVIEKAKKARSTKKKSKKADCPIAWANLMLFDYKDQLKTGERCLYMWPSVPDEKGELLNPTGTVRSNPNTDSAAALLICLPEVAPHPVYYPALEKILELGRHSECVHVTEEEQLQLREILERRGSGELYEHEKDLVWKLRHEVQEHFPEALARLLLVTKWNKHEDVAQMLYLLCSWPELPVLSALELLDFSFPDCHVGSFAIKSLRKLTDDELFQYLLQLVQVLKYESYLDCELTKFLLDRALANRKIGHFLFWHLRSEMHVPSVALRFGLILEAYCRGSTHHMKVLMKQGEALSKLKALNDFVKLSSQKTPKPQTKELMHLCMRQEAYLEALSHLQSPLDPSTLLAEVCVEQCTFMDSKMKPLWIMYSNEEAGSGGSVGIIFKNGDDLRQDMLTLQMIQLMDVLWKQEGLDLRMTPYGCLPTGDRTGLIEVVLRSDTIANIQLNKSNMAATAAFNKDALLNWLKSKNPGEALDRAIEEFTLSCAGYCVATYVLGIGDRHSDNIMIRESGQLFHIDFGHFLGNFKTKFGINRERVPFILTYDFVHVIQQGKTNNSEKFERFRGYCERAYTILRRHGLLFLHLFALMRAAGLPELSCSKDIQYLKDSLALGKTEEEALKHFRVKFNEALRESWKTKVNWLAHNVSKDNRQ
PI3K δ, sequence (P27986 whole entry partner, species assumed): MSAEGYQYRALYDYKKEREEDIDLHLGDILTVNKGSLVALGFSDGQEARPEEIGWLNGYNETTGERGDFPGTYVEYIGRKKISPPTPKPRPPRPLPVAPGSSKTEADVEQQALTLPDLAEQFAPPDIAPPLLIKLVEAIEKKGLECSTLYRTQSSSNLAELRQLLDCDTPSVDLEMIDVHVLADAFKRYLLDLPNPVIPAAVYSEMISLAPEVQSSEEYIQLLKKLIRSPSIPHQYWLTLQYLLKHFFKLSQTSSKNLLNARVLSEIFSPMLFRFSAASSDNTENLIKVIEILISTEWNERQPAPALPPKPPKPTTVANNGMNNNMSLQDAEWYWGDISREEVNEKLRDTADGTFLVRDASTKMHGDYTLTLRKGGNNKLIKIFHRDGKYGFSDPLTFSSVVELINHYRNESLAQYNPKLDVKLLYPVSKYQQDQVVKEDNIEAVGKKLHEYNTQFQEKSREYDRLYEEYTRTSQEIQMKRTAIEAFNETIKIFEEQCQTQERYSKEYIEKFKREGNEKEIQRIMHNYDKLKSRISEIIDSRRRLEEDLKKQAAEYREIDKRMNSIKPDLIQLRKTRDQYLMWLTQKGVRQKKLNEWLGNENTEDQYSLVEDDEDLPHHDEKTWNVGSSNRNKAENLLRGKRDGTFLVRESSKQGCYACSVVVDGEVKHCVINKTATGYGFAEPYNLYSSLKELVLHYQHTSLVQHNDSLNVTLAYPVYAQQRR

PI3K β = PI3K β (Homo sapiens, UniProt P42338); assay: PI3K β kinase assay; assay type: biochemical
PI3K β, sequence (P42338 whole entry, species assumed): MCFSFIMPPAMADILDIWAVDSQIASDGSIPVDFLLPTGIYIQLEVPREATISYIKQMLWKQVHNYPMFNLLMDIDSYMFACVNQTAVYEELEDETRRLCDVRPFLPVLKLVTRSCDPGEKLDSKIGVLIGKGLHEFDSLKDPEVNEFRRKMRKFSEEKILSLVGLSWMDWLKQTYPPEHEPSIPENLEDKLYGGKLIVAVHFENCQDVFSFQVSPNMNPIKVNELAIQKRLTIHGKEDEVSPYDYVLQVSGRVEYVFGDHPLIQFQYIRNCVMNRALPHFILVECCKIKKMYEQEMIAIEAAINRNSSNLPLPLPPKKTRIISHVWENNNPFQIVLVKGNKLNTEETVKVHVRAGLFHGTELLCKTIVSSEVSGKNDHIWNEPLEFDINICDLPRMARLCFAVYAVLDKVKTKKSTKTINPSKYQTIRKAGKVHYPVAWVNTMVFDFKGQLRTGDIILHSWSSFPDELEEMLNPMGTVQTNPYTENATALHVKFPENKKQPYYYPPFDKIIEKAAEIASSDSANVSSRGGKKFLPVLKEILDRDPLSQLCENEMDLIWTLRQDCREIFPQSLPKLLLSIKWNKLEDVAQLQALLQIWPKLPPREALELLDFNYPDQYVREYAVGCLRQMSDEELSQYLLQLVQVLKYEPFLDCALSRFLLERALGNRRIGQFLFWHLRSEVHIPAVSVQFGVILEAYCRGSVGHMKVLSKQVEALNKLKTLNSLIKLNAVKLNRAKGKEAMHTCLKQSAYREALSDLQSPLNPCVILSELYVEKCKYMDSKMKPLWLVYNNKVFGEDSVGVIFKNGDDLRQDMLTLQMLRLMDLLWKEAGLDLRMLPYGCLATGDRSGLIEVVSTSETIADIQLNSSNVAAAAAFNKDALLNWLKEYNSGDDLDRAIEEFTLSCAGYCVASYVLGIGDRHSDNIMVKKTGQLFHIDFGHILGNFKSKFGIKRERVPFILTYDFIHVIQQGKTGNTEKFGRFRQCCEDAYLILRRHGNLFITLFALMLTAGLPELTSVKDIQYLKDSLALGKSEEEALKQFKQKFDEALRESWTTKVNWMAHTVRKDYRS
PI3K β, sequence (P27986 whole entry partner, species assumed): as the sequence (P27986 whole entry partner, species assumed) above

PC3 = PC3 proliferation; assay type: cell-based; details: Homo sapiens, PC-3; for EC50: Table 1; for IC50: Table 2
mTOR = target: T1, mTOR (Homo sapiens, UniProt P42345); assay: mTOR kinase inhibition assay; assay type: biochemical
T1 construct: purchased Invitrogen
Description: The compounds described herein and any other mTorC1/mTorC2 inhibitors known in the art can be tested against recombinant mTOR (Invitrogen) in an assay containing 50 mM HEPES, pH 7.5, 1 mM EGTA, 10 mM MgCl2, 2.5 mM, 0.01% Tween, 10 μM ATP (2.5 μCi of μ-32P-ATP), and 3 mg/mL BSA. Rat recombinant PHAS-1/4EBP1 (Calbiochem; 2 mg/mL) is used as a substrate. Reactions are terminated by spotting onto nitrocellulose, which is washed with 1M NaCl/1% phosphoric acid (approximately 6 times, 5-10 minutes each). Sheets are dried and the transferred radioactivity quantitated by phosphorimaging.
For instance, one can use Invitrogen's LanthaScreen™ Kinase assay to test the inhibitors of mTOR disclosed herein. This assay is a time resolved FRET platform that measures the phosphorylation of GFP labeled 4EBP1 by mTOR kinase. The kinase reaction is performed in a white 384 well microtitre plate. The total reaction volume is 20 μl per well and the reaction buffer composition is 50 mM HEPES pH7.5, 0.01% Polysorbate 20, 1 mM EGTA, 10 mM MnCl2, and 2 mM DTT. In the first step, each well receives 2 ul of test compound in 20% dimethylsulphoxide resulting in a 2% DMSO final concentration. Next, 8ul of mTOR diluted in reaction buffer is added per well for a 60 ng/ml final concentration. To start the reaction, 10 ul of an ATP/GFP-4EBP1 mixture (diluted in reaction buffer) is added per well for a final concentration of 10 μM ATP and 0.5 μM GFP-4EBP1. The plate is sealed and incubated for 1 hour at room temperature. […] The plate is sealed, incubated for 1 hour at room temperature, and then read on a plate reader set up for LanthaScreen™ TR-FRET. Data is analyzed and IC50s are generated using GraphPad Prism 5.

PI3K γ, sequence (P48736 whole entry, species assumed): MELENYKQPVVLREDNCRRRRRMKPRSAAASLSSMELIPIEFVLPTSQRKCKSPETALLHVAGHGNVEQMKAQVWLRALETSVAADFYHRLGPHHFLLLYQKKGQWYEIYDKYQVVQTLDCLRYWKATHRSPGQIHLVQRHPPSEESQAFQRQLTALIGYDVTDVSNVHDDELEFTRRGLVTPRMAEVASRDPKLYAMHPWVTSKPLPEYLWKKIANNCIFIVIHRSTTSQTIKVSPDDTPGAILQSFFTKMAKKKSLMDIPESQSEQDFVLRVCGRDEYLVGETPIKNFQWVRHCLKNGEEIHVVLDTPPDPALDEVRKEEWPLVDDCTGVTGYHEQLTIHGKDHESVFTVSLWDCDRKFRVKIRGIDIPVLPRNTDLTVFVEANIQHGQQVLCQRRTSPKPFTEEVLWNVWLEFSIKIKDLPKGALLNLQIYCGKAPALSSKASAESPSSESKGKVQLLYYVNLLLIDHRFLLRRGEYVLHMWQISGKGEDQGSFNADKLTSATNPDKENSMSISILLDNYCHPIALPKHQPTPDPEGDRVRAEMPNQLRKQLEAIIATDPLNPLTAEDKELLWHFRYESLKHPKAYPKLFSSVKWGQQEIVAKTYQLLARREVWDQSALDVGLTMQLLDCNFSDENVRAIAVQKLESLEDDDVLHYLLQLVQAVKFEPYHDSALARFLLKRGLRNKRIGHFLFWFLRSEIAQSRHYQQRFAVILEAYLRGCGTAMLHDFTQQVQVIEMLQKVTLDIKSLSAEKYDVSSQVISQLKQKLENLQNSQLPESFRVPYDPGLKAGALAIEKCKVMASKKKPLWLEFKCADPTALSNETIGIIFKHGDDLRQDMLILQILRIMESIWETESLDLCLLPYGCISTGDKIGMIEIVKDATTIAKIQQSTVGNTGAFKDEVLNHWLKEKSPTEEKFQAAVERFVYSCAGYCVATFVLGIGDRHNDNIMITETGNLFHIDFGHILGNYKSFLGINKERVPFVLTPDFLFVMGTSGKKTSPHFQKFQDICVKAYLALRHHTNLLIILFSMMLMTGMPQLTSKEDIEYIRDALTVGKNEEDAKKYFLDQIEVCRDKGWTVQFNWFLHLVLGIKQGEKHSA
PI3K α, sequence (P42336 whole entry, species assumed): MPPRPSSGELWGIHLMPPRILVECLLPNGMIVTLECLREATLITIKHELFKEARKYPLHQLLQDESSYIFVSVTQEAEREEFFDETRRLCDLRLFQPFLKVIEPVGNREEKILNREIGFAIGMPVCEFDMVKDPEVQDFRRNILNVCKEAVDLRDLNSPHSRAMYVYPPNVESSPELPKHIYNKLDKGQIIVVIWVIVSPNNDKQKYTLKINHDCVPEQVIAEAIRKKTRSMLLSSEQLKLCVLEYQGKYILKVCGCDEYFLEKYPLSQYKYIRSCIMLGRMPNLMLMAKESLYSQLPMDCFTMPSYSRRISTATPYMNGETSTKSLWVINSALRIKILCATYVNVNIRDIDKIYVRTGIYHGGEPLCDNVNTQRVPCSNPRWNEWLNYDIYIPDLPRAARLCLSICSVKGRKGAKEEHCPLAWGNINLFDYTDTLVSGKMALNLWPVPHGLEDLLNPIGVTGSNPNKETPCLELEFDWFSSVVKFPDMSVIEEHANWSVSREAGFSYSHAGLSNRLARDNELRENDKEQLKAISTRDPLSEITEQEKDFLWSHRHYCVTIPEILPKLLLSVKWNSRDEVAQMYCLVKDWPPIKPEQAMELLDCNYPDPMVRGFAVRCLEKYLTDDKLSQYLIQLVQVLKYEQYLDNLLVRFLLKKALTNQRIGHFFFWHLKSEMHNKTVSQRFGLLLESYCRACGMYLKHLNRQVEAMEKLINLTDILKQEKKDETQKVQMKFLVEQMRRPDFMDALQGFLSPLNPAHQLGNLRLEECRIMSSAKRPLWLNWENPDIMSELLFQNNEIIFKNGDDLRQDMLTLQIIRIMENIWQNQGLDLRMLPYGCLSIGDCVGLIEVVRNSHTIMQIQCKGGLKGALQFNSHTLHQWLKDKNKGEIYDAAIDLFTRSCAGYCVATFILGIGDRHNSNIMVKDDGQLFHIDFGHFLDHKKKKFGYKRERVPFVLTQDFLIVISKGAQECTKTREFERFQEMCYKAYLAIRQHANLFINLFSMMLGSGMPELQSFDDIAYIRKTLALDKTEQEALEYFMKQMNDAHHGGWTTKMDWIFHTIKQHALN
PI3K α, sequence (P27986 whole entry partner, species assumed): as the sequence (P27986 whole entry partner, species assumed) above

Row | Compound | IC50 (PI3K γ; Table 1) | IC50 (PI3K α; Table 1) | IC50 (PI3K δ; Table 1) | IC50 (PI3K β; Table 1) | EC50 (PC3) | IC50 (mTOR; Table 1, read-out: mTOR IC50) | IC50 (PI3K α; Table 2) | IC50 (PI3K δ) | IC50 (PI3K β; Table 2) | IC50 (PC3) | IC50 (mTOR; Table 2, read-out: mTORC IC50) | IC50 (PI3K γ; Table 2) | IC50 (PI3K δ; Table 2)
1 | CC(=O)Nc1nc2cc(-c3nn(C(C)C)c4ncnc(N)c34)ccc2o1 [Compound 2] | < 1000 nM | < 10000 nM | < 1000 nM | > 10000 nM | < 1000 nM | < 100 nM |  |  |  |  |  |  | 
2 | CC(C)n1nc(-c2ccc3nc(N)oc3c2)c2c(N)ncnc21 [Compound 4] | < 1000 nM | < 10000 nM | < 1000 nM | < 10000 nM | < 10000 nM | < 1000 nM |  |  |  |  |  |  | 
3 | Nc1nc2cc(-c3nn(C4CCOCC4)c4ncnc(N)c34)ccc2o1 [Compound 5] | < 100 nM | < 1000 nM | < 1000 nM | < 10000 nM | < 100 nM | < 100 nM |  |  |  |  |  |  | 
4 | Nc1nc2cc(-c3nn(C4CCC(N5CCOCC5)CC4)c4ncnc(N)c34)ccc2o1 (centres unmarked) [Compound 6] |  |  | < 1000 nM | > 10000 nM | < 1000 nM | < 100 nM |  |  |  |  |  |  | 
5 | CC(=O)N1CCC(n2nc(-c3ccc4oc(N)nc4c3)c3c(N)ncnc32)CC1 [Compound 7] | < 10000 nM | < 1000 nM | < 1000 nM | < 10000 nM | < 10000 nM | < 100 nM |  |  |  |  |  |  | 
6 | Nc1nc2cc(-c3cn(C4CCOCC4)c4ncnc(N)c34)ccc2o1 [Compound 9] |  | < 10000 nM |  | > 10000 nM | < 100 nM | < 100 nM |  |  |  |  |  |  | 
7 | CC(C)n1nc(-c2ccc3onc(N)c3c2)c2c(N)ncnc21 [Compound 10] |  |  |  |  | > 10000 nM | < 10000 nM |  |  |  |  |  |  | 
8 | CC(=O)Nc1noc2cc(-c3nn(C(C)C)c4ncnc(N)c34)ccc12 [Compound 11] |  |  |  |  | > 10000 nM | < 1000 nM |  |  |  |  |  |  | 
9 | CC(C)n1nc(-c2ccc3c(N)noc3c2)c2c(N)ncnc21 [Compound 12] |  |  |  |  | > 10000 nM | < 1000 nM |  |  |  |  |  |  | 
10 | Nc1ncnc2c1c(-c1cc3cc(O)ccc3[nH]1)nn2C1CCCC1 [Compound 12] |  |  |  |  |  |  | > 500 nM | > 500 nM | > 500 nM | 25 to 50 nM | 5 to 10 nM |  | 
11 | CC(C)n1nc(-c2cc3ccc(O)cc3[nH]2)c2c(N)ncnc21 [Compound 21] |  |  |  |  |  |  | 100 to 500 nM |  | > 500 nM |  | 25 to 50 nM | 100 to 500 nM | 100 to 500 nM
12 | Cc1nc(N)c2c(-c3ccc4oc(N)nc4c3)nn(C(C)C)c2n1 [Compound 21] | > 10000 nM | > 10000 nM | > 10000 nM | > 10000 nM |  | < 1000 nM |  |  |  |  |  |  | 
13 | CC(CO)n1nc(-c2ccc3oc(N)nc3c2)c2c(N)ncnc21 (centres unmarked) [Compound 23] | < 10000 nM | < 10000 nM | < 10000 nM | > 10000 nM |  | < 100 nM |  |  |  |  |  |  | 
14 | CC(C)n1nc(-c2cc3ccc(C#N)cc3[nH]2)c2c(N)ncnc21 [Compound 24] |  |  |  |  |  |  | > 500 nM |  |  | > 500 nM | > 500 nM |  | 
15 | CC(C)n1nc(-c2cc3ccc(C(N)=O)cc3[nH]2)c2c(N)ncnc21 [Compound 25] |  |  |  |  |  |  | > 500 nM |  |  | > 500 nM | 100 to 500 nM |  | 
16 | Nc1nc2cc(-c3nn(C4CC(=O)C4)c4ncnc(N)c34)ccc2o1 [Compound 25] | < 100 nM | < 1000 nM | < 1000 nM | < 10000 nM |  |  |  |  |  |  |  |  | 
17 | CC(C)(CO)n1nc(-c2ccc3oc(N)nc3c2)c2c(N)ncnc21 [Compound 27] | > 10000 nM | < 10000 nM | < 1000 nM | > 10000 nM |  |  |  |  |  |  |  |  | 
18 | Nc1ncnc2c1c(-c1cc3cc(O)ccc3[nH]1)nn2C1CCC1 [Compound 27] |  |  |  |  |  |  |  |  |  | 100 to 500 nM | 10 to 25 nM |  | 

Row | Compound | IC50 (PI3K γ; Table 1) | IC50 (PI3K α; Table 1) | IC50 (PI3K δ; Table 1) | IC50 (PI3K β; Table 1) | EC50 (PC3) | IC50 (mTOR; Table 1, read-out: mTOR IC50) | IC50 (PI3K α; Table 2) | IC50 (PI3K δ) | IC50 (PI3K β; Table 2) | IC50 (PC3) | IC50 (mTOR; Table 2, read-out: mTORC IC50) | IC50 (PI3K γ; Table 2) | IC50 (PI3K δ; Table 2)
19 | Nc1ncnc2c1c(-c1cc3cccc(O)c3[nH]1)nn2C1CCCC1 [Compound 36] |  |  |  |  |  |  | > 500 nM |  |  | 50 to 100 nM | 5 to 10 nM | 50 to 100 nM | 100 to 500 nM
20 | Nc1ncnc2c1c(-c1cc3cccc(O)c3[nH]1)nn2C1CCN(C(=O)C2CC2)CC1 [Compound 41] |  |  |  |  |  |  | > 500 nM |  | > 500 nM |  | 5 to 10 nM | 25 to 50 nM | > 500 nM
21 | Nc1ncnc2c1c(-c1cc3c(Cl)cccc3[nH]1)nn2C1CCOCC1 [Compound 48] |  |  |  |  |  |  | > 500 nM |  | > 500 nM |  | 25 to 50 nM | > 500 nM | > 500 nM
22 | Nc1ncnc2c1c(-c1cc3cc(O)ccc3[nH]1)nn2C1CC(N2CCOCC2)C1 (centres unmarked) [Compound 49] |  |  |  |  |  |  | > 500 nM |  | > 500 nM |  | 5 to 10 nM | 100 to 500 nM | 100 to 500 nM
23 | CC(C)n1nc(-c2cc3cccc(Cl)c3[nH]2)c2c(N)ncnc21 [Compound 50] |  |  |  |  |  |  | > 500 nM |  | > 500 nM |  | 25 to 50 nM | 100 to 500 nM | 100 to 500 nM
24 | Nc1ncnc2c1c(-c1cc3cccc(Cl)c3[nH]1)nn2C1CCOCC1 [Compound 51] |  |  |  |  |  |  | > 500 nM |  | > 500 nM |  | 25 to 50 nM | 100 to 500 nM | 100 to 500 nM
25 | CN1CCN(C2CC(n3nc(-c4cc5cc(O)ccc5[nH]4)c4c(N)ncnc43)C2)CC1 (centres unmarked) [Compound 52] |  |  |  |  |  |  | > 500 nM |  | > 500 nM |  | 100 to 500 nM | > 500 nM | 100 to 500 nM
26 | COc1ccc(Cl)c2cc(-c3nn(C4CCOCC4)c4ncnc(N)c34)[nH]c12 [Compound 61] |  |  |  |  |  |  | > 500 nM |  | > 500 nM |  | 10 to 25 nM | > 500 nM | > 500 nM
27 | Nc1ncnc2c1c(-c1cc3cccc(O)c3[nH]1)nn2C1CCOCC1 [Compound 62] |  |  |  |  |  |  | > 500 nM |  | > 500 nM |  | < 5 nM | > 500 nM | 50 to 100 nM
28 | COc1cccc2cc(-c3nn(C4CCOCC4)c4ncnc(N)c34)[nH]c12 [Compound 63] |  |  |  |  |  |  | 100 to 500 nM |  | > 500 nM |  | < 5 nM | 10 to 25 nM | 10 to 25 nM
29 | CC(C)N1CCC(n2nc(-c3cc4cccc(O)c4[nH]3)c3c(N)ncnc32)CC1 [Compound 64] |  |  |  |  |  |  | > 500 nM |  | > 500 nM |  | 10 to 25 nM | 100 to 500 nM | 100 to 500 nM
30 | CC(=O)N1CCC(n2nc(-c3cc4ccc(O)cc4[nH]3)c3c(N)ncnc32)CC1 [Compound 65] |  |  |  |  |  |  | 25 to 50 nM |  | > 500 nM |  | 5 to 10 nM | 10 to 25 nM | 10 to 25 nM
31 | COc1cccc2cc(-c3nn(C4CCN(C(=O)C5CC5)CC4)c4ncnc(N)c34)[nH]c12 [Compound 66] |  |  |  |  |  |  | > 500 nM |  | > 500 nM |  | > 500 nM | > 500 nM | > 500 nM
32 | COc1cc(Cl)c2[nH]c(-c3nn(C4CCOCC4)c4ncnc(N)c34)cc2c1 [Compound 67] |  |  |  |  |  |  | > 500 nM |  | > 500 nM |  | > 500 nM | > 500 nM | > 500 nM
33 | Nc1ncnc2c1c(-c1cc3cc(O)cc(Cl)c3[nH]1)nn2C1CCOCC1 [Compound 68] |  |  |  |  |  |  | 100 to 500 nM |  | > 500 nM |  | < 5 nM | 25 to 50 nM | 10 to 25 nM
34 | CC(=O)N1CCC(n2nc(-c3cc4c(Cl)ccc(O)c4[nH]3)c3c(N)ncnc32)CC1 [Compound 69] |  |  |  |  |  |  | > 500 nM |  | > 500 nM |  | < 5 nM | > 500 nM | 100 to 500 nM
35 | CC(=O)N1CCC(n2nc(-c3cc4cc(O)cc(Cl)c4[nH]3)c3c(N)ncnc32)CC1 [Compound 70] |  |  |  |  |  |  | 100 to 500 nM |  | > 500 nM |  | < 5 nM | 50 to 100 nM | 10 to 25 nM
36 | CC(C)N1CCC(n2nc(-c3cc4c(Cl)ccc(O)c4[nH]3)c3c(N)ncnc32)CC1 [Compound 71] |  |  |  |  |  |  | > 500 nM |  | > 500 nM |  | 50 to 100 nM | > 500 nM | > 500 nM
